Tests used:
[1] = molecular target: hemolysin alpha from Staphylococcus aureus (Staphylococcus aureus, UniProt P09616); assay: cell-based
[2] = molecular target: S. aureus Alpha hemolysin (Staphylococcus aureus, UniProt P09616); assay: cell-based
Sequence of S. aureus Alpha hemolysin (P09616 27-319 limits assumed): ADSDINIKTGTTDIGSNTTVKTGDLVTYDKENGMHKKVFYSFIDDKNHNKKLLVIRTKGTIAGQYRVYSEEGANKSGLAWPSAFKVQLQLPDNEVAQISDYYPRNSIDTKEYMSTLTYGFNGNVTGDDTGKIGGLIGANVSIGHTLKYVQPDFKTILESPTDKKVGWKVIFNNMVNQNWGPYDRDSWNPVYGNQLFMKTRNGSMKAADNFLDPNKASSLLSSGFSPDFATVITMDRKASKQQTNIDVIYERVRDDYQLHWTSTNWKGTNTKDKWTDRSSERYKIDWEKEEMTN

Sequence of hemolysin alpha from Staphylococcus aureus (P09616 27-319 limits assumed): as above

Compound | EC50 [1] [nM] | EC50 ([2]; A549-LDH Assay activity) [nM] | EC50 ([2]; LDH Assay EC50) [nM]
Cc1cc2[nH]c(=O)c(=O)[nH]c2cc1S(=O)(=O)Nc1ccc2c(c1)B(O)OC2 [Compound 388, N-(1-hydroxy-3H-2,1-benzoxaborol-6-yl)-7-methyl-2,3-dioxo-1,4-dihydroquinoxaline-6-sulfonamide] | 100 to 1000 | 1000 to 6000 | 
Cc1cc2[nH]c(=O)c(=O)[nH]c2cc1S(=O)(=O)Nc1ccc(-c2ccc(F)c(C(N)=O)c2)c(Cl)c1 [Compound 389, 5-[2-chloro-4-[(7-methyl-2,3-dioxo-1,4-dihydroquinoxalin-6-yl)sulfonylamino]phenyl]-2-fluoro-benzamide] | < 30 | 30 to 100 | 
Cc1cc2[nH]c(=O)c(=O)[nH]c2cc1S(=O)(=O)Nc1ccc(-c2cc(F)cc(C(N)=O)c2)c(Cl)c1 [Compound 390, 3-[2-chloro-4-[(7-methyl-2,3-dioxo-1,4-dihydroquinoxalin-6-yl)sulfonylamino]phenyl]-5-fluoro-benzamide] | < 30 | < 30 | 
COc1cc2[nH]c(=O)c(=O)[nH]c2cc1S(=O)(=O)Nc1ccc(OC(F)F)cc1 [Compound 391, N-[4-(difluoromethoxy)phenyl]-7-methoxy-2,3-dioxo-1,4-dihydroquinoxaline-6-sulfonamide] | 1000 to 3500 | 100 to 1000 | 
[2H]C([2H])([2H])c1cc2[nH]c(=O)c(=O)[nH]c2cc1S(=O)(=O)Nc1cnc(-c2ccc(F)cc2)c(Cl)c1 [Compound 392, N-[5-chloro-6-(4-fluorophenyl)-3-pyridyl]-2,3-dioxo-7-(trideuteriomethyl)-1,4-dihydroquinoxaline-6-sulfonamide] | 30 to 100 | 100 to 1000 | 
Cc1cc2[nH]c(=O)c(=O)[nH]c2cc1S(=O)(=O)Nc1ccc(-c2ccc(F)c(C#N)c2)c(Cl)c1 [Compound 393, N-[3-chloro-4-(3-cyano-4-fluoro-phenyl)phenyl]-7-methyl-2,3-dioxo-1,4-dihydroquinoxaline-6-sulfonamide] | 30 to 100 | 100 to 1000 | 
Cc1cc2[nH]c(=O)c(=O)[nH]c2cc1S(=O)(=O)Nc1ccc(OC(F)F)cc1 [Compound 394, N-[4-(difluoromethoxy)phenyl]-7-methyl-2,3-dioxo-1,4-dihydroquinoxaline-6-sulfonamide] | 100 to 1000 | 30 to 100 | 
Cc1cc2[nH]c(=O)c(=O)[nH]c2cc1S(=O)(=O)Nc1ccc(SC(F)(F)F)cc1 [Compound 396, 7-methyl-2,3-dioxo-N-[4-(trifluoromethylsulfanyl)phenyl]-1,4-dihydroquinoxaline-6-sulfonamide] | 100 to 1000 | 30 to 100 | 
Cc1cc2[nH]c(=O)c(=O)[nH]c2cc1S(=O)(=O)Nc1ccc(-c2ccc(S(C)(=O)=O)cc2)c(Cl)c1 [Compound 398, N-[3-chloro-4-(4-methylsulfonylphenyl)phenyl]-7-methyl-2,3-dioxo-1,4-dihydroquinoxaline-6-sulfonamide] | 1000 to 3500 | 1000 to 6000 | 
COc1cc2[nH]c(=O)c(=O)[nH]c2cc1S(=O)(=O)Nc1ccc(SC(F)(F)F)cc1 [Compound 399, 7-methoxy-2,3-dioxo-N-[4-(trifluoromethylsulfanyl)phenyl]-1,4-dihydroquinoxaline-6-sulfonamide] | 1000 to 3500 | 100 to 1000 | 
COc1cc2[nH]c(=O)c(=O)[nH]c2cc1S(=O)(=O)Nc1ccc(C(F)(F)F)cc1 [Compound 400, 7-methoxy-2,3-dioxo-N-[4-(trifluoromethyl)phenyl]-1,4-dihydroquinoxaline-6-sulfonamide] | 1000 to 3500 | 100 to 1000 | 
Cc1cc2[nH]c(=O)c(=O)[nH]c2cc1S(=O)(=O)Nc1ccc(OC(F)(F)F)cc1 [drawing 469 (R^2 = CH3)] | 37 |  | 14
O=c1[nH]c2ccc(S(=O)(=O)Nc3ccc(OC(F)(F)F)cc3)cc2[nH]c1=O [drawing 469 (R^2 = H), reference compound] | 290 |  | 241
Cc1cc2[nH]c(=O)c(=O)[nH]c2cc1S(=O)(=O)Nc1ccc(C2CC2)cc1 [drawing 470 (R^2 = CH3)] | 63 |  | 18
O=c1[nH]c2ccc(S(=O)(=O)Nc3ccc(C4CC4)cc3)cc2[nH]c1=O [drawing 470 (R^2 = H), reference compound] | 423 |  | 80
Cc1cc(NS(=O)(=O)c2cc3[nH]c(=O)c(=O)[nH]c3cc2C)ccc1Br [drawing 471 (R^2 = CH3)] | 267 |  | 91
Cc1cc(NS(=O)(=O)c2ccc3[nH]c(=O)c(=O)[nH]c3c2)ccc1Br [drawing 471 (R^2 = H), reference compound] | 1690 |  | 346
